The term pIC50 denotes the IC50 on a negative log10 scale, so that one unit is a factor of ten. Read a high pIC50 as a low IC50. What is called AUC is concentration integrated over time.

The conditions of series [1]: mouse, microsomes.
Description: Metabolic stability in mouse liver microsomes assessed as clearance
The target of series [2] is T1, DNA polymerase theta (Homo sapiens, UniProt O75417). In words: Inhibition of human DNA polymerase theta pol domain (1819 to 2590 residues) expressed in Escherichia coli BL21 (DE3) cells preincubated for 15 mins followed by DNA and dNTP addition and measured after 120 mins by Picogreen dye fluorescence intensity analysis.
Series [3] can be described thus: fCaverage in CD-1 mouse. It is filed as ADME.
The nature of series [4]: Plasma protein binding in mouse assessed as unbound fraction by equilibrium dailysis. It is filed as ADME, cell-free.
Series [5] is described as follows: AUC in CD-1 mouse at 20 mg/kg, po measured upto 24 hrs by reverse phase LCMS analysis. The settings on record: in vivo. On the set-up: time < 24 hrs, dose 20 mg/kg, route po. It is filed as ADME, organism-based.
For series [6], the target named is T1, DNA polymerase theta. In words: Inhibition of human DNA polymerase theta using DNA 16/19 as substrate at 5 nM of enzyme concentration.
For series [7], the target named is T1, DNA polymerase theta. In words: Inhibition of human DNA polymerase theta using DNA 16/19 as substrate at 1 nM of enzyme concentration.
Series [8] has as its target T1, DNA polymerase theta. Briefly: Inhibition of human DNA polymerase theta using 5'-CACTGACTGTATGATG as primer and DNA 16/19 as substrate by FRET assay.
The target of series [9] is T1, DNA polymerase theta. Briefly: Inhibition of human DNA polymerase theta using DNA 16/19 as substrate at 2 nM of enzyme concentration.
The target in series [10] is T1, DNA polymerase theta. In words: Inhibition of human DNA polymerase theta using DNA 16/19 as substrate at 0.5 nM of enzyme concentration.

pIC50: −log10 of the molar value.

T1 sequence (O75417 whole entry, the tested form may be a part): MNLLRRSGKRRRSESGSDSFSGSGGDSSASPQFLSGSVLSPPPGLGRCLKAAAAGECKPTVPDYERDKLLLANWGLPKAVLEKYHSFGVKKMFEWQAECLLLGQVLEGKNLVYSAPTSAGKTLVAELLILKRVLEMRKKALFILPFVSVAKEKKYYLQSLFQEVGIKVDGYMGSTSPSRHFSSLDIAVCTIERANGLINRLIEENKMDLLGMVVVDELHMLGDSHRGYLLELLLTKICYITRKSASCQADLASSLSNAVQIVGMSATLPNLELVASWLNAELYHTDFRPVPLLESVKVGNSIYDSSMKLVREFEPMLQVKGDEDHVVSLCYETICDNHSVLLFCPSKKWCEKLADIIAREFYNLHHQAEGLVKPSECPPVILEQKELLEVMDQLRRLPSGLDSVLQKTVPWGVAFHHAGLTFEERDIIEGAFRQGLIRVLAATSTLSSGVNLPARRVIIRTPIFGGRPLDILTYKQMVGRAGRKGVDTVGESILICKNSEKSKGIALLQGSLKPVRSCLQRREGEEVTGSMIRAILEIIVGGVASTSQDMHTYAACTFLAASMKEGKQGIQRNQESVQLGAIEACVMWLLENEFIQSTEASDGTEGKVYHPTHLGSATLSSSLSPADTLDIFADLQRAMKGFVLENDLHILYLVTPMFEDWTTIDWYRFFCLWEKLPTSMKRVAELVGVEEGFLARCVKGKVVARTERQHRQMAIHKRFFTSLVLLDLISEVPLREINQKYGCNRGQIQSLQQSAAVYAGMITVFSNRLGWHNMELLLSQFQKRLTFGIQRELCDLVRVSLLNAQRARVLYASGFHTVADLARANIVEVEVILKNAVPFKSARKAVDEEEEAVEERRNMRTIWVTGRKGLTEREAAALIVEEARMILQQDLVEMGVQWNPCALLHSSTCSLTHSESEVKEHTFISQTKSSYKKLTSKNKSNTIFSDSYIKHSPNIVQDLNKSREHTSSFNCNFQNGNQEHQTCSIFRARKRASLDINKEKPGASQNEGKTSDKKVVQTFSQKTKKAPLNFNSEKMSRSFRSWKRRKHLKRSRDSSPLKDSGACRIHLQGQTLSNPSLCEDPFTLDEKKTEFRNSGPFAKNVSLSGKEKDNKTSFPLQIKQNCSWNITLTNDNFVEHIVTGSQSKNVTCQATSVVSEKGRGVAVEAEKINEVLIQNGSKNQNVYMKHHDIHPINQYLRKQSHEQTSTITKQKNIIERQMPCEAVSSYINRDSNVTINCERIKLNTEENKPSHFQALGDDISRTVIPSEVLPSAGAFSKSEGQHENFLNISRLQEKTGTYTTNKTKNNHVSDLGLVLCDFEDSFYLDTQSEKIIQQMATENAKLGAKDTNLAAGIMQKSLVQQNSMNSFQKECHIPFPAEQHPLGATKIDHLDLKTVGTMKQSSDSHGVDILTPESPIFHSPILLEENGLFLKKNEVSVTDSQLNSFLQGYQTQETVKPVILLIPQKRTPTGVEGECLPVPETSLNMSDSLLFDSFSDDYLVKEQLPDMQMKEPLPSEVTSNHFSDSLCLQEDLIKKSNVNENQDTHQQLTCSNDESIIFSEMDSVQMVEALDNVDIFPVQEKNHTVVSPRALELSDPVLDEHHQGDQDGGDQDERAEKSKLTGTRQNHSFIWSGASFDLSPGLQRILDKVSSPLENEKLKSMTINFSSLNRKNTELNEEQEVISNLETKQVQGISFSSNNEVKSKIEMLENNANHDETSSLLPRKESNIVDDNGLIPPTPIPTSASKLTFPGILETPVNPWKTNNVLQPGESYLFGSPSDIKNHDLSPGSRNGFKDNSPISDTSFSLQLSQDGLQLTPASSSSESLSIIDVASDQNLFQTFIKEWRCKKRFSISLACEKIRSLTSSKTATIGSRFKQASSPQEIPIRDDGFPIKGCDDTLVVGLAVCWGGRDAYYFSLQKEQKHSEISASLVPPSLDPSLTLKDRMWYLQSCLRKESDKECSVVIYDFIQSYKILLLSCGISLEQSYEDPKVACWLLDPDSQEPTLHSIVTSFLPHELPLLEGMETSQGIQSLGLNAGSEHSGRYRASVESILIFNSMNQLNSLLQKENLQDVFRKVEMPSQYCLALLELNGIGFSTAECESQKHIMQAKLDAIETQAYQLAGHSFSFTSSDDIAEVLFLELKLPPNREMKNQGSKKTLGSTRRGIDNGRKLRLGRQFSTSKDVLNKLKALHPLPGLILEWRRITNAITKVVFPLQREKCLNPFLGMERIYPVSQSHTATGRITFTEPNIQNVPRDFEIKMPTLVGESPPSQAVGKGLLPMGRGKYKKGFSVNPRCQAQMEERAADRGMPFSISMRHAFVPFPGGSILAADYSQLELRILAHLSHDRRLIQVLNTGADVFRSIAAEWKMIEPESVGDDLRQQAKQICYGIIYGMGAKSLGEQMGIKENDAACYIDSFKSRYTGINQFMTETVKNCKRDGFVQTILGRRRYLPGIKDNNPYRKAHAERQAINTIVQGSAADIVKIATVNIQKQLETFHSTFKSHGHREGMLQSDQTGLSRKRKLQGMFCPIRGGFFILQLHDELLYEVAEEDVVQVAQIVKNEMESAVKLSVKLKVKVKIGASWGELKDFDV

Consider `O=C(Cc1ccc(C(F)(F)F)cc1C(F)(F)F)N(CC#Cc1cccnc1)c1ccccc1`, for which, in series [1], the CLH amounted to 110 µL/min/mg. The pIC50 at DNA polymerase theta [2] is 8.60.
The molecule `CN(C(=O)Cn1c(C(F)(F)F)cc(C(F)(F)F)cc1=O)c1ccccc1` had a negative-log IC50 (pIC50) on DNA polymerase theta [2] of 7.24.
In turn, `CN(C(=O)Cn1nc2c(c1C(F)(F)F)C(=O)NCC2)c1ccccc1` came in with a CLH in series [1] of 18 µL/min/mg. The molecule also gave a negative logarithm of the IC50 (pIC50) against DNA polymerase theta [2] below 4.00.
In [1], `CN(C(=O)Cc1ccc(C(F)(F)F)cc1C(F)(F)F)c1ccc(F)cc1` showed a CLH of 125 µL/min/mg. Moreover, the negative logarithm of the IC50 (pIC50) at DNA polymerase theta [2] is 7.77.
For the molecule `O=C(Cc1ncc(C(F)(F)F)cc1C(F)(F)F)N(CC#Cc1ccc(C2CCNC2)cn1)c1ccc(F)cc1` (configuration not stated), the “f(Cave)” value in series [3] is 30 nM. Further, the Fu in series [4] worked out at 0.019. The same molecule had a pIC50 against DNA polymerase theta [2] of 9.14. In addition, the AUC in series [5] was found to be 38 µM·h.
In series [1], `CN(C(=O)Cn1nc2c(c1C(F)(F)F)CCC2(C)C)c1ccccc1` displayed a CLH above 832 µL/min/mg. Also, the pIC50 against DNA polymerase theta [2] was 5.64.
Molecule `CN(C(=O)Cc1ccc(Cl)cc1C(F)(F)F)c1ccccc1` showed a pIC50 against DNA polymerase theta [2] of 6.92.
Turning to `CS(=O)(=O)Cn1cc(C#CCN(C(=O)Cc2ncc(C(F)(F)F)cc2C(F)(F)F)c2ccc(F)cc2)cn1`, in series [3], the “f(Cave)” value came to 60 nM. The Fu in [4] was found to be 0.019. For the same molecule, at DNA polymerase theta [2], the pIC50 is 9.04. In addition, in series [5], the AUC was 76.3 µM·h.
For `Cn1cnc(C#CCN(C(=O)Cc2ncc(C(F)(F)F)cc2C(F)(F)F)c2ccc(F)cc2)c1` the same measures were 3 nM, 0.018, 8.05 and 5.31 µM·h.
With `O=C(NCC#CCN(C(=O)Cc1ccc(C(F)(F)F)cc1C(F)(F)F)c1ccccc1)c1ccccn1`, the CLH in [1] stood at 469 µL/min/mg. Further, the pIC50 against DNA polymerase theta [2] is 9.40.
As to `O=C(Cc1ncc(C(F)(F)F)cc1C(F)(F)F)N(CC#Cc1cnn(C2CNC2)c1)c1ccc(F)cc1`, the “f(Cave)” value in series [3] turned out to be 29 nM. Besides, the Fu in series [4] worked out at 0.051. Also, the negative logarithm of the IC50 (pIC50) against DNA polymerase theta [2] was 9.12. The AUC in [5] worked out at 14.1 µM·h.
`CN(C(=O)Cc1ccc(C2CC2)cc1C(F)(F)F)c1ccccc1` gave a pIC50 against DNA polymerase theta [2] of 7.40.
On to `Nc1cnc(C#CCN(C(=O)Cc2ncc(C(F)(F)F)cc2C(F)(F)F)c2ccc(F)cc2)cn1`, for which the “f(Cave)” value in series [3] is 81 nM. Moreover, in series [4], the Fu worked out at 0.018. In addition, the pIC50 against DNA polymerase theta [2] is 8.38. This molecule displayed an area under the curve (AUC) in [5] of 108 µM·h.
For the molecule `Nc1ncc(C#CCN(C(=O)Cc2ncc(C(F)(F)F)cc2C(F)(F)F)c2ccc(F)cc2)cn1`, the “f(Cave)” value in [3] worked out at 81 nM. In addition, in [4], the Fu stood at 0.015. The pIC50 against DNA polymerase theta [2] is 8.80. This molecule also yielded an AUC in series [5] of 24.7 µM·h.
Regarding `O=C(Cc1ccc(C(F)(F)F)cc1C(F)(F)F)N(CC#Cc1cccc(=O)[nH]1)c1ccccc1`, the CLH in [1] is 39 µL/min/mg. On DNA polymerase theta [2], this molecule had a pIC50 of 9.29.
In turn, `CN(C(=O)Cc1ccc(C(F)(F)F)cc1C(F)(F)F)c1cccnc1` showed a CLH in series [1] of 216 µL/min/mg. In addition, at DNA polymerase theta [2], the pIC50 was 5.49.
Turning to `CN(C(=O)Cc1ncc(C(F)(F)F)cc1C(F)(F)F)c1ccccc1`, the negative-log IC50 (pIC50) against DNA polymerase theta [2] was 7.19.
In [1], `CN(C(=O)Cn1nc2c(c1C(F)(F)F)CNCC2)c1ccccc1` showed a CLH of 16 µL/min/mg. Besides, the negative logarithm of the IC50 (pIC50) on DNA polymerase theta [2] is below 4.00.
In series [1], `N#CCN(C(=O)Cc1ccc(C(F)(F)F)cc1C(F)(F)F)c1ccccc1` returned a CLH of 115 µL/min/mg. The molecule further gave a negative logarithm of the IC50 (pIC50) against DNA polymerase theta [2] of 7.38.
In turn, `Cc1c2c(nn1CC(=O)N(C)c1ccccc1)CCC2` returned a CLH in [1] of 473 µL/min/mg. Moreover, the pIC50 against DNA polymerase theta [2] was 5.00.
With `CN(C(=O)Cc1ccccc1C(F)(F)F)c1ccccc1`, the pIC50 against DNA polymerase theta [2] is 5.04.
In turn, `Cn1cncc1C#CCN(C(=O)Cc1ccc(C(F)(F)F)cc1C(F)(F)F)c1ccccc1` showed a CLH in series [1] of 57 µL/min/mg. This molecule showed a negative logarithm of the IC50 (pIC50) on DNA polymerase theta [2] of 8.92.
`CC1Cc2nn(CC(=O)N(C)c3ccccc3)c(C(F)(F)F)c2C1` (configuration not stated): the CLH in [1] was above 832 µL/min/mg. At DNA polymerase theta [2], this molecule showed a pIC50 of 6.02.
The molecule `CN(C(=O)Cn1nc2c(c1C(F)(F)F)CCC2)c1ccccc1` showed a CLH in series [1] above 555 µL/min/mg. The negative-log IC50 (pIC50) against DNA polymerase theta [2] is 6.15.
In series [1], `CN(C(=O)Cc1ccc(C(F)(F)F)cc1C(F)(F)F)c1ccncc1` had a CLH of 56 µL/min/mg. At DNA polymerase theta [2], this molecule had a pIC50 of 5.66.
For `O=C(Cc1ccc(C(F)(F)F)cc1C(F)(F)F)N(CC#Cc1ccccn1)c1ccccc1`, the CLH in series [1] came out at 64 µL/min/mg. This molecule had a pIC50 at DNA polymerase theta [2] of 8.54.
For the molecule `COc1ccc(C#CCN(C(=O)Cc2ncc(C(F)(F)F)cc2C(F)(F)F)c2ccc(F)cc2)nn1`, the “f(Cave)” value in series [3] was found to be 6 nM. Also, at DNA polymerase theta [2], the negative logarithm of the IC50 (pIC50) was 8.31. Further, the AUC in series [5] came to 27.7 µM·h.
Take `CN(C(=O)Cn1nc(C(F)(F)F)c2c1CCCC2)c1ccccc1`: on DNA polymerase theta [2], the pIC50 is 4.96.
Regarding `CN(C(=O)Cc1ccc(C(F)(F)F)cc1C(F)(F)F)c1ccccn1`, in series [1], the CLH is above 832 µL/min/mg. For the same molecule, the pIC50 on DNA polymerase theta [2] was 5.57.
Molecule `O=C(NCC#CCN(C(=O)Cc1ccc(C(F)(F)F)cc1C(F)(F)F)c1ccccc1)c1cccnc1` yielded a CLH in series [1] of 492 µL/min/mg. The same molecule showed a negative logarithm of the IC50 (pIC50) on DNA polymerase theta [2] of 9.70.
Molecule `CC(=O)NCC#CCN(C(=O)Cc1ccc(C(F)(F)F)cc1C(F)(F)F)c1ccccc1` had a CLH in series [1] above 832 µL/min/mg. Moreover, the pIC50 against DNA polymerase theta [2] is 9.09.
In series [1], `CN(C(=O)Cn1nc2c(c1C(F)(F)F)CCCC2)c1ccccc1` returned a CLH above 555 µL/min/mg.
As to `CN(C(=O)Cn1nc2c(c1C(F)(F)F)CC(C)(C)C2)c1ccccc1`, the CLH in series [1] is above 555 µL/min/mg. At DNA polymerase theta [2], this molecule showed a pIC50 of 6.25.
In the case of `Cn1nc(N)cc1C#CCN(C(=O)Cc1ncc(C(F)(F)F)cc1C(F)(F)F)c1ccc(F)cc1`, in series [3], the “f(Cave)” value stood at 65 nM. Also, the Fu in series [4] amounted to 0.044. Also, at DNA polymerase theta [2], the negative-log IC50 (pIC50) was 8.77. The AUC in series [5] was determined as 35.6 µM·h.
In [1], `Cc1nnc(C(=O)NCC#CCN(C(=O)Cc2ccc(C(F)(F)F)cc2C(F)(F)F)c2ccccc2)o1` had a CLH of 614 µL/min/mg. On DNA polymerase theta [2], the negative-log IC50 (pIC50) was 10.17.
Take `CN(C(=O)Cn1nc2c(c1C(F)(F)F)C(O)CC2)c1ccccc1` (configuration not stated): in series [1], the CLH was 46 µL/min/mg. This molecule also gave a negative-log IC50 (pIC50) against DNA polymerase theta [2] below 4.00.
Consider `C#CCN(C(=O)Cc1ccc(C(F)(F)F)cc1C(F)(F)F)c1ccccc1`, for which, in [1], the CLH came to 597 µL/min/mg. The molecule further had a pIC50 at DNA polymerase theta [2] of 7.85.
`CN(C(=O)Cn1nc2c(c1C(F)(F)F)C(C)(C)CC2)c1ccccc1`: the CLH in series [1] was above 555 µL/min/mg. The molecule also had a negative-log IC50 (pIC50) on DNA polymerase theta [2] of 6.28.
As for `CN(C(=S)Cn1nc2c(c1C(F)(F)F)CCC2)c1ccccc1`, the negative-log IC50 (pIC50) was 7.95 against DNA polymerase theta [6]; 8.13 against DNA polymerase theta [7]; 7.77 against DNA polymerase theta [2]; 8.00 against DNA polymerase theta [8]; 8.06 at DNA polymerase theta [9]; 8.07 at DNA polymerase theta [10]. This molecule also had a CLH in [1] above 555 µL/min/mg.
In the case of `O=C(Cc1ccc(C(F)(F)F)cc1C(F)(F)F)N(CC#Cc1ncccn1)c1ccccc1`, in series [1], the CLH was found to be 105 µL/min/mg. At DNA polymerase theta [2], this molecule gave a negative logarithm of the IC50 (pIC50) of 8.41.
Regarding `[2H]C([2H])([2H])N(C(=O)Cc1ccc(C(F)(F)F)cc1C(F)(F)F)c1ccc(F)cc1`, in series [1], the CLH stood at 52 µL/min/mg. Moreover, the pIC50 against DNA polymerase theta [2] is 7.72.
In turn, `CN(C(=O)Cn1nc2c(c1C(F)(F)F)CS(=O)(=O)C2)c1ccccc1` came in with a CLH in [1] of 23 µL/min/mg. The negative logarithm of the IC50 (pIC50) against DNA polymerase theta [2] is 4.37.
In series [1], `CC1CCc2nn(CC(=O)N(C)c3ccccc3)c(C(F)(F)F)c21` (configuration not stated) registered a CLH above 555 µL/min/mg. At DNA polymerase theta [2], this molecule gave a pIC50 of 6.62.
Consider `COc1ncc(C#CCN(C(=O)Cc2ncc(C(F)(F)F)cc2C(F)(F)F)c2ccc(F)cc2)cn1`, for which the “f(Cave)” value in [3] is 3 nM. For the same molecule, the Fu in series [4] is 0.013. The pIC50 on DNA polymerase theta [2] was 8.68. In series [5], this molecule yielded an AUC of 7 µM·h.
As to `CC(C(N)=O)n1cc(C#CCN(C(=O)Cc2ncc(C(F)(F)F)cc2C(F)(F)F)c2ccc(F)cc2)cn1` (configuration not stated), the “f(Cave)” value in series [3] is 49 nM. Further, in [4], the Fu was 0.044. At DNA polymerase theta [2], this molecule had a negative-log IC50 (pIC50) of 9.00. This molecule showed an exposure (AUC) in series [5] of 27 µM·h.
